Reference: patent US20240059677A1, “SUBSTITUTED PYRIMIDINE DERIVATIVES AS NICOTINIC ACETYLCHOLINESTERASE RECEPTOR ALPHA 6 MODULATOR” (priority 2020, published 2024)

These molecules were tested against T1, human nAChRα6-α3 chimera, in addition to β2 and β3^V273S subunits (Homo sapiens, UniProt P32297+Q15825) (assay: fluorescence-based calcium assay: inhibition of nicotine stimulated nAChRα6 activity (FLIPR)). Details: HEK cell line stably expressing the receptor; 10 min pre-incubation, nicotine EC80; 10-point curve, duplicate wells; read-out: IC50.
T1 construct: expressed in transfected cells
T1 sequence (Q05901 25-458 V273S): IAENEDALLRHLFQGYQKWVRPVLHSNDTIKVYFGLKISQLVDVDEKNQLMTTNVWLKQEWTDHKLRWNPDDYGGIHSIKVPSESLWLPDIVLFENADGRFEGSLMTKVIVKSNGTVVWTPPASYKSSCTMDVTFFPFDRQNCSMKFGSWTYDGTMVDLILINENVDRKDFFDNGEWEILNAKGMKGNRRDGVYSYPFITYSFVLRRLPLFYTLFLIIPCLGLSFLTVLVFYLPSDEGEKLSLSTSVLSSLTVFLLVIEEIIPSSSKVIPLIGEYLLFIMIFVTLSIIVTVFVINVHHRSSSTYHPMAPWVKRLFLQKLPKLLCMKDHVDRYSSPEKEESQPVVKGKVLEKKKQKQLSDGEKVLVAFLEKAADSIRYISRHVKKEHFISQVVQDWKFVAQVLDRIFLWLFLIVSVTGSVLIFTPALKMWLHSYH
T1 sequence (P17787 26-502, stated change not applied, further chain): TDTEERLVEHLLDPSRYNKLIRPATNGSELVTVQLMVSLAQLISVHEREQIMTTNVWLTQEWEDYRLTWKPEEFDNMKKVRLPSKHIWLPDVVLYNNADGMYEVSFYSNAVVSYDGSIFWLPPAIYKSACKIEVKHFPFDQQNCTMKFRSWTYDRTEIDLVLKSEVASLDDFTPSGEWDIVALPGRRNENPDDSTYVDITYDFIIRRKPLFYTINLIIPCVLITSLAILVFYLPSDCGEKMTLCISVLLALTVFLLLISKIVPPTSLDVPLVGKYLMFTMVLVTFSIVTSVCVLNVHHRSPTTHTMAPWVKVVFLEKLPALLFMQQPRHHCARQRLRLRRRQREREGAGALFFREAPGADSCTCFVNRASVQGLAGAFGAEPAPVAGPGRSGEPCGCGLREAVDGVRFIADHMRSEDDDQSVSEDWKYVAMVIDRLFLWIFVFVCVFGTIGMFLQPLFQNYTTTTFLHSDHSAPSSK
T1 sequence (Q15825+P32297 fused with the stated changes): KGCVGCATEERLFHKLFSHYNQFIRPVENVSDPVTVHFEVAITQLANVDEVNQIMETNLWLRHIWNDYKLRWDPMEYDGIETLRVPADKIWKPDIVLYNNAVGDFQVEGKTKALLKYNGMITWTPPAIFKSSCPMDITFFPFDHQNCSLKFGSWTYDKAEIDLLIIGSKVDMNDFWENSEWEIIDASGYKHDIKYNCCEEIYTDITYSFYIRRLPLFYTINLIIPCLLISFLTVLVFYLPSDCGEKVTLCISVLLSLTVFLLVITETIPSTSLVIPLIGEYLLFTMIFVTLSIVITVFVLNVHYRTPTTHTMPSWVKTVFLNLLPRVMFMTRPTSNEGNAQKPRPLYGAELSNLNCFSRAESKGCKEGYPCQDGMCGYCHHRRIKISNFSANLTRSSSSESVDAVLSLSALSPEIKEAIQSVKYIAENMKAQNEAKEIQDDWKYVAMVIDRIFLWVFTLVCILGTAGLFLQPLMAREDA
Outline: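 HEK cells stably expressing the human α6-α3 chimera with β2 and β3^V273S were loaded with calcium dye at 30° C. Compounds were pre-incubated for 10 min before nicotine at EC80, and the fluorescence change was read on a FLIPR. Ten-point half-log concentration-response, duplicate wells.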
In the case of COc1ccc(-c2cnc(NC3CCCN(C(C)C)C3)nc2C)c(F)c1 (stereo not drawn) [Example 48, 5-(2-fluoro-4-methoxyphenyl)-N-(1-isopropylpiperidin-3-yl)-4-methyl-pyrimidin-2-amine], the IC50 is reported as 83 nM. In the case of COc1ccc(-c2cnc(NCC3CCCN(C(C)C)C3)nc2C)c(F)c1 (stereo not drawn) [Example 49, 5-(2-fluoro-4-methoxyphenyl)-N-((1-isopropylpiperidin-3-yl)methyl)-4-methyl-pyrimidin-2-amine], the IC50 is reported as 69 nM. Molecule COc1ccc(-c2cnc(NCC3CCCCN3C(C)C)nc2C)c(F)c1 (stereo not drawn) [Example 50, 5-(2-fluoro-4-methoxyphenyl)-N-((1-isopropylpiperidin-2-yl)methyl)-4-methyl-pyrimidin-2-amine] has an IC50 of 103 nM. Molecule COc1ccc(-c2cnc(NCC3CCCOC3)nc2C)c(F)c1 (stereo not drawn) [Example 51, 5-(2-fluoro-4-methoxyphenyl)-4-methyl-N-((tetrahydro-2H-pyran-3-yl)methyl)pyrimidin-2-amine] has an IC50 of 1100 nM. Work on Cc1nc(NC2CCC(S(C)(=O)=O)C2)ncc1-c1ccc(F)cc1F (stereo not drawn) [Example 52, 5-(2,4-difluorophenyl)-4-methyl-N-(3-(methylsulfonyl)cyclopentyl) pyrimidin-2-amine] yielded an IC50 of 1530 nM. Work on Cc1nc(NC2CCCN(CC(F)(F)F)C2)ncc1-c1ccc(F)cc1F (stereo not drawn) [Example 60, 5-(2,4-difluorophenyl)-4-methyl-N-(1-(2,2,2-trifluoroethyl)piperidin-3-yl) pyrimidin-2-amine] yielded an IC50 of 1180 nM. Molecule COc1ccc(F)c(-c2cnc(NCC3COCCN3C)nc2C)c1 (stereo not drawn) [Example 61, 5-(2-fluoro-5-methoxyphenyl)-4-methyl-N-((4-methylmorpholin-3-yl)methyl)pyrimidin-2-amine] has an IC50 of 533 nM. Molecule COc1ccc(-c2cnc(NCC3COCCN3C)nc2C)c(Cl)c1 (stereo not drawn) [Example 62, 5-(2-chloro-4-methoxyphenyl)-4-methyl-N-((4-methylmorpholin-3-yl)methyl)pyrimidin-2-amine] has an IC50 of 64 nM. COc1ccc(-c2cnc(NCc3cncn3C)nc2C)c(Cl)c1 [Example 63, 5-(2-chloro-4-methoxyphenyl)-4-methyl-N-((1-methyl-1H-imidazol-5-yl)methyl)pyrimidin-2-amine] showed an IC50 of 141 nM. CN1CCC(Nc2ncc(-c3ccc(F)cc3F)c(C#N)n2)CC1 [Example 66, 5-(2,4-difluorophenyl)-2-((1-methylpiperidin-4-yl)amino)pyrimidine-4-carbonitrile] showed an IC50 of 94 nM. Cc1nc(NC2CCN(C(C)C)CC2)ncc1-c1ccc(F)cc1F [Example 67, 5-(2,4-difluorophenyl)-N-(1-isopropylpiperidin-4-yl)-4-methyl-pyrimidin-2-amine] was tested, and the IC50 was 66 nM. COc1ccc(-c2c(C)nc(NCC3CCCN3C)nc2C)c(F)c1 (stereo not drawn) [Example 70, 5-(2-fluoro-4-methoxyphenyl)-4,6-dimethyl-N-((1-methylpyrrolidin-2-yl)methyl)pyrimidin-2-amine] showed an IC50 of 72 nM. For Cc1nc(NC2CCN(C)CC2)ncc1-c1ccc(F)cc1F [Example 71, 5-(2,4-difluorophenyl)-4-methyl-N-(1-methylpiperidin-4-yl)pyrimidin-2-amine], the IC50 was 54 nM. Molecule Cc1nc(NC2CCCN(C(C)C)C2)ncc1-c1ccc(F)cc1F (stereo not drawn) [Example 72, 5-(2,4-difluorophenyl)-N-(1-isopropylpiperidin-3-yl)-4-methyl-pyrimidin-2-amine] has an IC50 of 52 nM. Molecule COc1ccc(-c2c(C)nc(NCC3CCCN3C)nc2OC)c(F)c1 (stereo not drawn) [Example 75, 5-(2-fluoro-4-methoxyphenyl)-4-methoxy-6-methyl-N-((1-methylpyrrolidin-2-yl)methyl)pyrimidin-2-amine] has an IC50 of 94 nM. Cc1nc(NC[C@H]2CC(F)(F)CN2C)ncc1-c1ccc(F)cc1F [Example 80, (R)—N-((4,4-difluoro-1-methylpyrrolidin-2-yl)methyl)-5-(2,4-difluorophenyl)-4-methyl-pyrimidin-2-amine] gave an IC50 of 1470 nM. COc1ccc(-c2cnc(NC3CCN(C(C)C)CC3)nc2C#N)c(F)c1 [Example 81, 5-(2-fluoro-4-methoxyphenyl)-2-((1-isopropylpiperidin-4-yl)amino) pyrimidine-4-carbonitrile] showed an IC50 of 98 nM. Molecule Cc1nc(NCC2CCCN2)ncc1-c1ccc(F)cc1F (stereo not drawn) [Example 82, 5-(2,4-difluorophenyl)-4-methyl-N-(pyrrolidin-2-ylmethyl)pyrimidin-2-amine] has an IC50 of 18 nM. With CCN1CCCC1CNc1ncc(-c2ccc(F)cc2F)c(C)n1 (stereo not drawn) [Example 85, 5-(2,4-difluorophenyl)-N-((1-ethylpyrrolidin-2-yl)methyl)-4-methyl-pyrimidin-2-amine] the IC50 was 51 nM. Work on [2H]C([2H])([2H])N1CCCC1CNc1ncc(-c2ccc(F)cc2F)c(C)n1 (stereo not drawn) [Example 87] yielded an IC50 of 45 nM. Molecule Cc1nc(NC2CCN(C(C)C)CC2)ncc1-c1ccc(OC(F)(F)F)cc1F [Example 88, 5-(2-fluoro-4-(trifluoromethoxy)phenyl)-N-(1-isopropylpiperidin-4-yl)-4-methyl-pyrimidin-2-amine] has an IC50 of 149 nM. For Cc1nc(NC2CCN(C)CC2)ncc1-c1ccc(OC(F)(F)F)cc1F [Example 89, 5-(2-fluoro-4-(trifluoromethoxy)phenyl)-4-methyl-N-(1-methylpiperidin-4-yl)pyrimidin-2-amine], the IC50 was 180 nM. [2H]C([2H])([2H])N1CCC[C@H]1CNc1ncc(-c2ccc(F)cc2F)c(C)n1 [Example 90a, (S)-5-(2,4-difluorophenyl)-4-methyl-N-((1-(trideuteriomethyl)pyrrolidin-2-yl)methyl)pyrimidin-2-amine] gave an IC50 of 211 nM. [2H]C([2H])([2H])N1CCC[C@@H]1CNc1ncc(-c2ccc(F)cc2F)c(C)n1 [Example 90b, (R)-5-(2,4-difluorophenyl)-4-methyl-N-((1-(trideuteriomethyl)pyrrolidin-2-yl)methyl)pyrimidin-2-amine] gave an IC50 of 186 nM. In the case of Cc1nc(NC[C@H]2CCCN2C)ncc1-c1ccc(C(F)(F)F)cc1F [Example 91a, (R)-5-(2-fluoro-4-(trifluoromethyl)phenyl)-4-methyl-N-((1-methylpyrrolidin-2-yl)methyl)pyrimidin-2-amine], the IC50 is reported as 8 nM. Work on Cc1nc(NC[C@@H]2CCCN2C)ncc1-c1ccc(C(F)(F)F)cc1F [Example 91b, (S)-5-(2-fluoro-4-(trifluoromethyl)phenyl)-4-methyl-N-((1-methylpyrrolidin-2-yl)methyl)pyrimidin-2-amine] yielded an IC50 of 28 nM. Work on Cc1nc(NC[C@H]2CCCN2C)ncc1-c1ccc(F)cc1C(F)(F)F [Example 92a, (R)-5-(4-fluoro-2-(trifluoromethyl)phenyl)-4-methyl-N-((1-methylpyrrolidin-2-yl)methyl)pyrimidin-2-amine] yielded an IC50 of 33 nM. Cc1nc(NC[C@@H]2CCCN2C)ncc1-c1ccc(F)cc1C(F)(F)F [Example 92b, (S)-5-(4-fluoro-2-(trifluoromethyl)phenyl)-4-methyl-N-((1-methylpyrrolidin-2-yl)methyl)pyrimidin-2-amine] gave an IC50 of 73 nM. Cc1nc(NC[C@H]2CCCN2C)ncc1-c1ccc(OC(F)(F)F)cc1F [Example 93a, (R)-5-(2-fluoro-4-(trifluoromethoxy)phenyl)-4-methyl-N-((1-methylpyrrolidin-2-yl)methyl)pyrimidin-2-amine] showed an IC50 of 50 nM. Cc1nc(NC[C@@H]2CCCN2C)ncc1-c1ccc(OC(F)(F)F)cc1F [Example 93b, (S)-5-(2-fluoro-4-(trifluoromethoxy)phenyl)-4-methyl-N-((1-methylpyrrolidin-2-yl)methyl)pyrimidin-2-amine] gave an IC50 of 11 nM. In the case of Cc1nc(NC[C@H]2CCCN2)ncc1-c1ccc(F)cc1F [Example 94a, (R)-5-(2,4-difluorophenyl)-4-methyl-N-(pyrrolidin-2-ylmethyl)pyrimidin-2-amine], the IC50 is reported as 5 nM. Cc1nc(NC[C@H]2CCCN2CC(F)(F)F)ncc1-c1ccc(F)cc1F [Example 95a, (R)-5-(2,4-difluorophenyl)-4-methyl-N-((1-(2,2,2-trifluoroethyl)pyrrolidin-2-yl)methyl)pyrimidin-2-amine] gave an IC50 of 48 nM. Cc1nc(NC[C@@H]2CCCN2CC(F)(F)F)ncc1-c1ccc(F)cc1F [Example 95b, (S)-5-(2,4-difluorophenyl)-4-methyl-N-((1-(2,2,2-trifluoroethyl)pyrrolidin-2-yl)methyl)pyrimidin-2-amine] showed an IC50 of 70 nM. CCN1CCCC1CNc1ncc(-c2ccc(C(F)(F)F)cc2F)c(C)n1 (stereo not drawn) [Example 98, N-((1-ethylpyrrolidin-2-yl)methyl)-5-(2-fluoro-4-(trifluoromethyl)phenyl)-4-methyl-pyrimidin-2-amine] was tested, and the IC50 was 67 nM. Work on Cc1nc(NCC2CCN(C)C2)ncc1-c1ccc(C(F)(F)F)cc1F (stereo not drawn) [Example 99, 5-(2-fluoro-4-(trifluoromethyl)phenyl)-4-methyl-N-((1-methylpyrrolidin-3-yl)methyl)pyrimidin-2-amine] yielded an IC50 of 83 nM. Cc1nc(N[C@H]2CCN(C(C)C)C2)ncc1-c1ccc(C(F)(F)F)cc1F [Example 100, (S)-5-(2-fluoro-4-(trifluoromethyl)phenyl)-N-(1-isopropylpyrrolidin-3-yl)-4-methyl-pyrimidin-2-amine] gave an IC50 of 110 nM. Cc1nc(NCC2CCN(C)CC2)ncc1-c1ccc(C(F)(F)F)cc1F [Example 101, 5-(2-fluoro-4-(trifluoromethyl)phenyl)-4-methyl-N-((1-methyl-4-piperidinyl)methyl)pyrimidin-2-amine] showed an IC50 of 109 nM. With Cc1nc(NC[C@H]2CCCN2)ncc1-c1ccc(C(F)(F)F)cc1F [Example 102, (R)-5-(2-fluoro-4-(trifluoromethyl)phenyl)-4-methyl-N-(pyrrolidin-2-ylmethyl)pyrimidin-2-amine] the IC50 was 5 nM. Cc1nc(NC[C@@H]2CCCN2)ncc1-c1ccc(C(F)(F)F)cc1F [Example 103, (S)-5-(2-fluoro-4-(trifluoromethyl)phenyl)-4-methyl-N-(pyrrolidin-2-ylmethyl)pyrimidin-2-amine] was tested, and the IC50 was 40 nM.
